Columns and labels:
Assay type in all cases: cell-based
HBsAg = assay: PHH natural infection assay, HBsAg (alphalisa); conditions: Hepatitis B virus, Hepatocyte, 72 h, read-out: HBsAg IC50
Description: (§1) Detailed procedures regarding primary human hepatocyte (PHH) HBV natural infection assay are described as below. One tube of frozen PHH (10 million cells) is thawed in 37° C. water bath and then transferred to 20 mL of PHH thawing medium (Sigma, InVitroGRO HT Medium, Cat. S03319) with gently mixing. The cells were then centrifuged at […] for 5 min, the supernatant was discarded and the tube was refilled with 25 mL of PHH plating medium (Sigma, InVitroGRO CP Medium, Cat. S03317). The tube was shaken very gently to re-suspend all cells, and then 50 µl of cells were transferred to each well 384-well collagen I coated plate with appropriate liquid handling equipment, e.g. Integra VIAFLO384 or Agilent Bravo. The cells were then cultured for 24 hours in a cell incubator. For HBV infection, after PHH attachment on the culture plate, the plating medium was removed and replenished with PHH culture medium containing HBV virus. The PHH culture medium was prepared with Dulbecco’s Modified Eagle Medium (DMEM)/F12 (1: 1 in volume ratio) containing 10% fetal bovine serum (Gibco, Cat.10099141), 5 ng/mL human epidermal growth factor (Gibco, Cat.PHG0311L), 20 ng/mL dexamethasone (Sigma, Cat.D4902-100 mg), 250 ng/mL human recombinant insulin (Gibco, Cat.41400045) and 100 U/mL penicillin. HBV virus at 200 genome equivalent (GE) per cell with 4% PEG8000 (Sigma, Cat.P1458) containing culture medium were added to the PHH culture medium for infection. The cells were then cultured for 24 hours in cell incubator. Then the cell culture supernatant was removed. The HBV-infected PHH were cultured with sandwich culture method with PHH culture medium containing 1% DMSO and 0.25 mg/mL matrix gel for 72 hours. The supernatant was then refreshed with PHH culture medium containing different concentrations of testing compounds for two times with 72-hour interval. At the end of treatment, the supernatant was collected for viral markers measurements, including HBsAg, HBeAg, HBV DNA and cytotoxicity. HBsAg and HBeAg were detected using alphalisa method using their specific antibodies. For HBV DNA detection, HBV DNA Quantitative Fluorescence Diagnostic Kit (Sansure Biotech Inc.) was used following the manufacture’s protocol. Cytotoxicity was determined using Cell Counting Kit-8 (CCK8, Dojindo Molecular Technologies, Inc.).
(§2) The compounds of the present invention were tested for their capacity to inhibit HBsAg and HBeAg as described herein.

HBeAg = assay: PHH natural infection assay, HBeAg (alphalisa); conditions: Hepatitis B virus, Hepatocyte, 72 h, read-out: HBeAg IC50
Description: as §1, §2

[1] = PHH natural infection assay, cytotoxicity (Cell Counting Kit-8); conditions: HBV-infected primary human hepatocytes, CCK8
Description: as §1

Structure (SMILES) | IC50 (HBsAg) [nM] | IC50 (HBeAg) [nM] | CC50 at 144 h [1] [nM]
O=C(Nc1ccc(-c2nnc(-c3ccccc3)o2)cc1)c1cccc(Cl)n1 [Example 22, 6-chloro-N-[4-(5-phenyl-1,3,4-oxadiazol-2-yl)phenyl]pyridine-2-carboxamide] | 960 | 1590 | > 100000
CC(C)CC(=O)Nc1ccc(-c2nnc(-c3ccccc3)o2)cc1 [Example 4, 3-methyl-N-[4-(5-phenyl-1,3,4-oxadiazol-2-yl)phenyl]butanamide] | 2800 | 3430 | > 100000
O=C(Nc1ccc(-c2nnc(-c3ccccc3)o2)cc1)c1ccnnc1 [Example 24, N-[4-(5-phenyl-1,3,4-oxadiazol-2-yl)phenyl]pyridazine-4-carboxamide] | 1200 | 1600 | > 100000
O=C(Nc1ccc(-c2nnc(-c3ccccc3)o2)cc1)c1ccccc1OC(F)F [Example 15, 2-(difluoromethoxy)-N-[4-(5-phenyl-1,3,4-oxadiazol-2-yl)phenyl]benzamide] | 1940 | 1940 | > 100000
Nc1ccc(-c2nnc(-c3ccccc3)o2)cc1F [Example 32, 2-Fluoro-4-(5-phenyl-1,3,4-oxadiazol-2-yl)aniline] | 2390 | 2810 | > 100000
O=C(Nc1ccc(-c2nnc(-c3ccccc3)o2)cc1)c1ccncc1 [Example 19, N-[4-(5-phenyl-1,3,4-oxadiazol-2-yl)phenyl]pyridine-4-carboxamide] | 4800 | 2800 | > 100000
O=C(Nc1ccc(-c2nnc(-c3ccccc3)o2)cc1)c1ccccc1Cl [Example 9, 2-chloro-N-[4-(5-phenyl-1,3,4-oxadiazol-2-yl)phenyl]benzamide] | 8230 | 1690 | > 100000
COCCC(=O)Nc1ccc(-c2nnc(-c3ccccc3)o2)cc1 [Example 5, 3-methoxy-N-[4-(5-phenyl-1,3,4-oxadiazol-2-yl)phenyl]propanamide] | 590 | 690 | > 100000
O=C(Nc1ccc(-c2nnc(-c3ccccc3)o2)cc1)c1ccc(F)cc1 [Example 12, 4-fluoro-N-[4-(5-phenyl-1,3,4-oxadiazol-2-yl)phenyl]benzamide] | 6200 | 6330 | > 100000
O=C(Nc1ccc(-c2nnc(-c3ccccc3)o2)cc1)c1ccc(Cl)cc1 [Example 13, 4-chloro-N-[4-(5-phenyl-1,3,4-oxadiazol-2-yl)phenyl]benzamide] | 5620 | 4430 | > 100000
CN(C)c1ccc(-c2nnc(-c3ccccc3)o2)cc1 [Example 33, N,N-dimethyl-4-(5-phenyl-1,3,4-oxadiazol-2-yl)aniline] | 7690 | 91600 | > 100000
O=C(Nc1ccc(-c2nnc(-c3ccccc3)o2)cc1)c1nccs1 [Example 27, N-[4-(5-phenyl-1,3,4-oxadiazol-2-yl)phenyl]thiazole-2-carboxamide] | 1520 | 1710 | > 100000
O=C(Nc1ccc(-c2nnc(-c3ccccc3)o2)cc1)c1ncco1 [Example 26, N-[4-(5-phenyl-1,3,4-oxadiazol-2-yl)phenyl]oxazole-2-carboxamide] | 910 | 1420 | > 100000
Cc1cc(F)cc(C(=O)Nc2ccc(-c3nnc(-c4ccccc4)o3)cc2)c1 [Example 10, 3-fluoro-5-methyl-N-[4-(5-phenyl-1,3,4-oxadiazol-2-yl)phenyl]benzamide] | 1610 | 2170 | > 100000
CCC(=O)Nc1ccc(-c2nnc(-c3ccccc3)o2)cc1 [Example 1, N-[4-(5-phenyl-1,3,4-oxadiazol-2-yl)phenyl]propanamide] | 1190 | 4850 | > 100000
O=C(Nc1ccc(-c2nnc(-c3ccccc3)o2)cc1)c1cccc(OC(F)F)c1 [Example 17, 3-(difluoromethoxy)-N-[4-(5-phenyl-1,3,4-oxadiazol-2-yl)phenyl]benzamide] | 1460 | 2790 | > 100000
O=C(Nc1ccc(-c2nnc(-c3ccccc3)o2)cc1)c1ccccc1OC(F)(F)F [Example 14, N-[4-(5-phenyl-1,3,4-oxadiazol-2-yl)phenyl]-2-(trifluoromethoxy)benzamide] | 3590 | 2880 | > 100000
O=C(Nc1ccc(-c2nnc(-c3ccccc3)o2)cc1)C1CCCC1 [Example 7, N-[4-(5-phenyl-1,3,4-oxadiazol-2-yl)phenyl]cyclopentanecarboxamide] | 510 | 770 | > 100000
O=C(Nc1ccc(-c2nnc(-c3ccccc3)o2)cc1)c1ccccc1F [Example 8, 2-fluoro-N-[4-(5-phenyl-1,3,4-oxadiazol-2-yl)phenyl]benzamide] | 4170 | 5060 | > 100000
CCCCC(=O)Nc1ccc(-c2nnc(-c3ccccc3)o2)cc1 [Example 3, N-[4-(5-phenyl-1,3,4-oxadiazol-2-yl)phenyl]pentanamide] | 2390 | 3010 | > 100000
O=C(Nc1ccc(-c2nnc(-c3ccccc3)o2)cc1)c1cccnn1 [Example 25, N-[4-(5-phenyl-1,3,4-oxadiazol-2-yl)phenyl]pyridazine-3-carboxamide] | 1090 | 1270 | > 100000
CC(C)(C)CC(=O)Nc1ccc(-c2nnc(-c3ccccc3)o2)cc1 [Example 29, 3,3-dimethyl-N-[4-(5-phenyl-1,3,4-oxadiazol-2-yl)phenyl]butanamide] | 5100 | 9570 | > 100000
O=C(Nc1ccc(-c2nnc(-c3ccccc3)o2)cc1)c1ccnc(Cl)c1 [Example 20, 2-chloro-N-[4-(5-phenyl-1,3,4-oxadiazol-2-yl)phenyl]pyridine-4-carboxamide] | 1390 | 2560 | > 100000
N#Cc1ccc(C(=O)Nc2ccc(-c3nnc(-c4ccccc4)o3)cc2)cc1 [Example 18, 4-cyano-N-[4-(5-phenyl-1,3,4-oxadiazol-2-yl)phenyl]benzamide] | 2540 | 2260 | > 100000
O=C(Nc1ccc(-c2nnc(-c3ccccc3)o2)cc1)c1cccc(OC(F)(F)F)c1 [Example 16, N-[4-(5-phenyl-1,3,4-oxadiazol-2-yl)phenyl]-3-(trifluoromethoxy)benzamide] | 1350 | 2910 | > 100000
O=C(Nc1ccc(-c2nnc(-c3ccccc3)o2)cc1)c1ccc(Cl)cn1 [Example 23, 5-chloro-N-[4-(5-phenyl-1,3,4-oxadiazol-2-yl)phenyl]pyridine-2-carboxamide] | 1230 | 2120 | > 100000
COc1cc(-c2nnc(-c3ccccc3)o2)ccc1N [Example 31, 2-Methoxy-4-(5-phenyl-1,3,4-oxadiazol-2-yl)aniline] | 1490 | 4170 | > 100000
CC(C)C(=O)Nc1ccc(-c2nnc(-c3ccccc3)o2)cc1 [Example 6, 2-methyl-N-[4-(5-phenyl-1,3,4-oxadiazol-2-yl)phenyl]propanamide] | 1330 | 2200 | > 100000
